A short description of series [1]: In vivo plasma half-life in mice. Conditions: mouse, IV, 9.3 mL/Kg of 3.2 mg/mL solution of Example 1, LC-MS. The method, then: In vivo Plasma Half-life of Compounds of the Present Invention in Mice.
The in vivo half-life of Compound 1 in mice was determined by measurement of its plasma concentrations at various time points following IV dosing. 18 male CD-1 mice aged 7-9 weeks were dosed IV with a 9.3 mL/Kg dose of a 3.2 mg/mL solution of Example 1 in 15% hydroxyl-propyl-beta-cyclodextrin/4.4% glucose/1 mM potassium phosphate (pH=7.6). Plasma samples were obtained at 10, 20, 30, 60, 120 and 240 min post-dose, sampling from 3 animals at each time point. Concentrations of Compound 1 in plasma were determined by LC-MS quantification.

Series [2] concerns Methicillin Resistant Staphylococcus aureus (MRSA, ATCC 33591). Briefly: Neutropaenic mouse thigh infection model. The class given is in vivo, mice. The settings on record: for antimicrobial effect: 5, 10, 20, 30 and 40 mg/Kg x2 IV. The method, then:
Efficacy of Compounds in a Neutropaenic Mouse Thigh Infection Model.
In vivo efficacy of compounds of the present invention in the treatment of bacterial tissue infections was evaluated using a neutropaenic mouse thigh model.
Groups of 6 male ICR mice weighing 24±2 g were used. Test animals were immuno-suppressed by 2 intraperitoneal injections of cyclophosphamide, the first at 150 mg/Kg 4 days before infection (day-4) and the second at 100 mg/Kg 1 day before infection (day−1). On day 0, individual animals were inoculated intramuscularly (IM) into the right thigh of test animals with 1.15×10^5 CFU/mouse of Methicillin Resistant Staphylococcus aureus (MRSA, ATCC 33591) suspended in 100 μL of sterile PBS, pH 7.4. Vehicle and test substances were administered intravenously (IV) at a dose volume of 6 mL/Kg, 2 and 14 hours after thigh infection. Example 1 and vancomycin were dissolved in 15% hydroxypropyl-beta-cyclodextrin/4.4% glucose/1.5 mM potassium phosphate buffer, pH 7.0 and administered at doses of 5, 10, 20, 30 and 40 mg/Kg. At 26 hours after inoculation, muscle of the right thigh of each test mouse was harvested. From an additional group with no treatment, muscle of the right thigh was harvested at 2 hours after inoculation for the basal CFU determination. The removed muscle tissues were then homogenized in 3-4 mL of PBS, pH 7.4 with a ceramic mortar. Homogenates of 0.1 mL were used for serial 10-fold dilutions and plated on Mueller Hinton broth in 1.5% Bacto agar for CFU determination.

The nature of series [3]: Laser beam light scattering through cuvette (FIG. 1). The settings on record: naked eye. The class given is physicochemical. An excerpt:
FIG. 1 is a series of photographs of two control formulations (glucose and vancomycin) and a formulation of Example 1, after a laser beam has been shone through a cuvette containing the same. […] In each case the presence or absence of the beam in the samples is clearly visible to the naked eye.
The colloid formulation according to the present invention is distinguished from a solution by the fact that a polarised beam of light, such as from laser, shone through the formulation, for example held in a 1 cm cuvette, causes the formulation to scatter light visible to the naked eye therefrom, for example in the form of a beam. Whilst not wishing to be bound by theory, this luminous path may be known as a Tyndall beam or Rayleigh scatter, both of which are a result of the scattering of the light by the particles in the colloid.

The subject of series [4] is Staphylococcus aureus methicillin resistant ATCC 33591. Briefly: Mouse bacteraemia model, SC dosing. The class given is in vivo, mice. The method, then:
In Vivo Efficacy of Compounds in a Mouse Bacteraemia Model
Groups of 6 male CD-1 (Crl.) derived mice weighing 24±2 g were used. Mice were inoculated intraperitoneally (IP) with an LD90-100 of Staphylococcus aureus methicillin resistant ATCC 33591 (1.1×10^7CFU/mouse) in 0.5 mL of BHI broth containing 5% mucin. Example 1 and vancomycin were dissolved in 15% HPbetaCD/4.4% glucose/0.5 mM KH2PO4, pH 5.0 and doses of 1, 3, 5, 10 and 20 mg/Kg were administered subcutaneously (SC) to test animals at 0, 2 and 24 hour(s) after bacteria challenge. The dosing volume was 5 mL/Kg. Mortality was recorded once daily for 7 days. The ED50 for each compound was determined by nonlinear regression.

Series [5] relates to Methicillin Resistant Staphylococcus aureus (MRSA, ATCC 33591). Briefly: Neutropaenic mouse thigh infection model, further experiment. The class given is in vivo, mice. The settings on record: IV 2 and 14 h after infection; 2.5-50 mg/Kg; thigh at 26 h. The method, then: In a further experiment groups of 6 male ICR mice weighing 24±2 g were used. Test animals were immunosuppressed by 2 intraperitoneal injections of cyclophosphamide, the first at 150 mg/Kg 4 days before infection (day-4) and the second at 100 mg/Kg 1 day before infection (day-1). On day 0, individual animals were inoculated intramuscularly (IM) into the right thigh of test animals with 1.5×10^5 CFU/mouse of Methicillin Resistant Staphylococcus aureus (MRSA, ATCC 33591) suspended in 100 μL of sterile PBS, pH 7.4. Vehicle and test substances were administered intravenously (IV) at a dose volume of 8 mL/Kg, 2 and 14 hours after thigh infection. Example 1 was dissolved in 5% dextrose/1 mM potassium phosphate, pH 5.0 and administered at doses of 2.5, 5, 10, 15, 25 and 50 mg/Kg. At 26 hours after inoculation, muscle of the right thigh of each test mouse was harvested. From an additional group with no treatment, muscle of the right thigh was harvested at 2 hours after inoculation for the basal CFU determination. The removed muscle tissues were then homogenized in 3-4 mL of PBS, pH 7.4 with a ceramic mortar. Homogenates of 0.1 mL were used for serial 10-fold dilutions and plated on Mueller Hinton broth in 1.5% Bacto agar for CFU determination.

The test system of series [6] is Staphylococcus aureus methicillin resistant ATCC 33591. Briefly: Mouse bacteraemia model, second experiment, IV dosing. The settings on record: for number of deaths: 7 days, groups of 6; for survival of mice after 7 days: 1, 3, 5 and 10 mg/kg IV. The class given is in vivo, mice. The method, then: In a second experiment Groups of 6 male CD-1 (Crl.) derived mice weighing 24±2 g were used. Mice were inoculated intraperitoneally (IP) with an LD90-100 of Staphylococcus aureus methicillin resistant ATCC 33591 (1.35×10^8 CFU/mouse) in 0.5 mL of BHI broth containing 5% mucin. Example 1 was dissolved in 5% dextrose/1.5 mM potassium phosphate, pH 5.0 and doses of 1, 3, 5 and 10 mg/Kg were administered intravenously (IV) to test animals at 1 and 13 hour(s) after bacteria challenge. The dosing volume was 5 mL/Kg. Mortality was recorded once daily for 7 days.

For `CC[C@H](C)[C@@H]1NC(=O)[C@@H]2NC(=O)[C@H](CC(C)C)NC(=O)[C@H](NC(=O)[C@@H]3CSC[C@@H](N)C(=O)N[C@@H](CO)C(=O)NCC(=O)N[C@@H](Cc4c[nH]c5ccccc45)C(=O)N[C@@H](C(C)C)C(=O)N3)[C@H](C)SC[C@H](NC(=O)[C@H](CCC(=O)O)NC1=O)C(=O)NCC(=O)N[C@H]1C(=O)N[C@@H](CC(C)C)C(=O)N[C@@H](C(C)C)C(=O)N[C@@H](CS[C@H]2C)C(=O)N[C@@H](C)C(=O)N[C@H](C(=O)NCc2cc(Cl)cc(Cl)c2)CS[C@H]1C` [Compound 1, Deoxyactagardine B (3,5-dichlorobenzylamine)monocarboxamide], the half-life (as a rule, how long it takes for the measured level to halve) in series [1] is around 2 h.

With `CN[C@H](CC(C)C)C(=O)N[C@H]1C(=O)N[C@@H](CC(N)=O)C(=O)N[C@H]2C(=O)N[C@H]3C(=O)N[C@H](C(=O)N[C@H](C(=O)O)c4cc(O)cc(O)c4-c4cc3ccc4O)[C@H](O)c3ccc(c(Cl)c3)Oc3cc2cc(c3O[C@@H]2O[C@H](CO)[C@@H](O)[C@H](O)[C@H]2O[C@H]2C[C@](C)(N)[C@H](O)[C@H](C)O2)Oc2ccc(cc2Cl)[C@H]1O` [vancomycin, reference compound], the “reductions of CFU/g” value in series [2] (30 mg/kg and above, x2 IV, thigh at 26 h) is listed as above 100 fold. Moreover, the antimicrobial effect entry in series [2] was “significant antimicrobial effect”. In series [2] (doses 5-40 mg/Kg x2 IV, thigh at 26 h), the “reduction of CFU/g, highest attained” value is ≤ 1,000 fold. Besides, the “visibility of laser beam through formulation (light scattering)” value in series [3] was “the beam is not visible”. Further, in series [4] (3, 5, 10 and 20 mg/Kg x3, SC), the “antimicrobial effect against S. aureus (MRSA) in mice” value is given as “significant antimicrobial effect”. The ED50 (in general, the dose at which the effect has come halfway, by size or by number of responders) in series [4] (Staphylococcus aureus, ATCC33591, SC at 0, 2 and 24 h after challenge, mortality over 7 days, nonlinear regression, read-out: estimated ED50) was 3 mg/kg. The “bacterial counts in the thigh tissue (FIG. 3)” value in series [5] was “dose dependent reduction in the bacterial counts”. The number of deaths in series [6] (1 mg/kg IV at 1 and 13 h) worked out at 5; in series [6] (3 mg/kg IV at 1 and 13 h), 3; in series [6] (5 mg/kg IV at 1 and 13 h) it was 1; in series [6] (10 mg/kg IV at 1 and 13 h), 0. In addition, the “survival of mice after 7 days” value in series [6] is reported as “dose-dependent increase in survival”.

On to “Deoxyactagardine B (3,5-dichlorobenzylamine)monocarboxamide [Example 1]”, for which, in series [2] (10 mg/kg and above, x2 IV, thigh at 26 h), the “reduction in CFU/g” value is above 1.000 fold. In addition, in series [2], the antimicrobial effect result is on record as “significant antimicrobial effect”. Further, the “visibility of laser beam through formulation (light scattering)” value in series [3] was “the beam is visible”. Besides, the survival rate in series [4] (3 mg/Kg, SC) was 100%. In addition, the “antimicrobial effect against S. aureus (MRSA) in mice” value in series [4] (3, 5, 10 and 20 mg/Kg x3, SC) is on record as “significant antimicrobial effect”. Further, the “increase in survival rate” value in series [4] (3, 5, 10 and 20 mg/Kg x3, SC) was “at least 50%”. In addition, the “estimated ED50” value in series [4] (SC at 0, 2 and 24 h after challenge, mortality over 7 days, nonlinear regression) is 1.07 mg/kg. Further, in series [5], the “bacterial counts in the thigh tissue (FIG. 3)” value is listed as “dose dependent reduction in the bacterial counts”. For the same compound, the number of deaths in series [6] (1 mg/kg IV at 1 and 13 h) turned out to be 5; in series [6] (3 mg/kg IV at 1 and 13 h), 4; in series [6] (5 mg/kg IV at 1 and 13 h), 1; in series [6] (10 mg/kg IV at 1 and 13 h), 1. Also, in series [6], the “survival of mice after 7 days” value is reported as “dose-dependent increase in survival”.

Source of the values: patent US9192569B2, “Formulations for infusion of type B lantibiotics” (Novacta Biosystems Limited, priority 2010, dated 2015).
